Experimental data: paper PMC8899577, “Targeting the anti-apoptotic Bcl-2 family proteins: machine learning virtual screening and biological evaluation of new small molecules” (Theranostics, 2022)
Like-named read-outs stand apart in the source and are kept apart here.

Legend:
[1] = Pharmacokinetics in mouse plasma (LC-MS/MS); assay type: in vivo, C57/Bl6 mice; settings: mice, intraperitoneal; for Tmax: read-out: time of maximum plasma concentration after injection
Method: 184 In vivo experi ments. […]
186 30% PEG400 (Sigma-Al drich) and 60% NaCl. Mice were sacrificed starting from 15 min to 24 h
187 after injection. Blood samples were collected b y cardiac puncture, centri fuged at 3,000 g for 10 min
188 at 4 °C and the obtained plasma was stored at - 80 °C until the analysis performed b y liquid
189 chromatograph y tandem mass spectrometry (LC –MS/MS). Given that the two compounds were
190 singularl y administered to the animals for the pharmacokinetic studies, IS20 was used as internal
191 standard (IS) for IS21 and vice versa. Internal Standard Working Solutions (IS-WS) were prepared
192 by adding appropriate volumes of the stock solutions to 50 mL of 0.1% formic acid (Fluka, Milan,
193 Ital y) in methanol:acetonitrile (50:50, v/v, Sigma -Aldrich), in order to reach a final concentration of
194 50 ng/m L. The solutions were maintained at - 20°C.
195 LC-MS/MS Analysis. 40 µ L of mouse plasma were mixed with 160 µ L o f IS -WS. The mixture was
196 vortex mixed for 1 min and centrifuged at 12,000 g for 10 min at 4 °C. The supernatant was
197 collected and 8 µL were injected into the LC–MS/MS system. The HP LC equipment consists of a
198 Series 200 Micro-LC Pump and a Series 200 autosampler from Perkin Elm er (Norwalk, CT, USA).
199 A triple quadrupole mass spectrometer, AB-Sciex API2000 (Toronto, ON, Canada) was used for
200 detection. The anal yt es were anal yzed using a C18 phase Kinetex column (10 cm x 2.1 mm ID) fro m
201 Phenomenex (Torran ce, CA, USA) packed with core–shell particles of […]. The mobile phases
202 were (A) acetonitrile an d (B) water, both containing 0.1% formic acid, at a flow rate of 0.25 mL /
203 min and were entirel y transferred into the mass spectrometer source. Gradient elution was as
204 follows: increase of the organic phase from 60 to 80% in 0.8 min, then to 90% in the following 1.2
205 min and linearly to 100% in 2 min. Finally, after 3.9 min of 100% , the column was led to the
206 original conditions in 2.5 min to enable equilibration of the column.
207 Both anal ytes were detected in positive ionization with a capillar y voltage of 5500 V, nebulizer gas
208 (air) at 40 psi, turbo gas (nitrogen) at 70 psi and 400 °C. The other ion source parameters were set
209 as follows: curtain gas (CUR) 18 psi; collision gas (CAD) 6 psi; declustering potential (DP) 80 V,
210 entrance potential (EP) 1 2 V.
211 The quantitative data were acquired using Multi Reaction Monitoring (MRM) acquisition mode.
212 Two MRM transitions (precursor ion>fragment ion) were selected for the analytes. For IS20
214 eV while collision cell exit potential (CXP) was at 19 and 8 V for the two transitions, respectively.
216 and 51 eV while collision cell exit potential (CXP) was at 21 and 6 V for the two transitions,
218 The anal ytical method was validated according to FDA guidelines for bioanalytical method
219 validation. Linearity, recover y, matrix effect, precision, accurac y, limits of detection (LODs) and
220 lower limits of quantification (LLOQs) were evaluated.
221 Calibration standard solutions were prepared in blank plasma b y spiking 25 µL of a standard
222 mixture at appropriate concentration to 40 µL of plasma and by adding 140 µL of methanol:
223 acetonitrile (50:50, v/v). Calibrators were then treated similarly to the animal samples. The
224 calibration range was 5 to 7500 ng/ mL and the calibrators were prepared at nine level of
225 concentration. Precision, recover y and accurac y w ere ev aluated at three lev el of concentrations (25,
226 […]) and resulted within the acceptable limits.
227 The limit of detection (LOD) was defined as the lowest concentration with a signal- to-noise (S/N)
228 ratio greater than 3. The limit of quantification (LOQ) was defined as the concentration at which
229 both precision (RSD%) and accurac y were less than 20%. LOQ resulted to be 2 ng/ mL while LOD
231 The validated method was then successfully applied in measuring IS20 and IS21 following drug […]

Bcl-xL = Bcl-xL (Homo sapiens, UniProt Q07817); assay: SPR binding to immobilized Bcl-xL; settings: 25 °C, 2-site fit, highest affinity site
Sequence of Bcl-xL (Q07817 whole entry): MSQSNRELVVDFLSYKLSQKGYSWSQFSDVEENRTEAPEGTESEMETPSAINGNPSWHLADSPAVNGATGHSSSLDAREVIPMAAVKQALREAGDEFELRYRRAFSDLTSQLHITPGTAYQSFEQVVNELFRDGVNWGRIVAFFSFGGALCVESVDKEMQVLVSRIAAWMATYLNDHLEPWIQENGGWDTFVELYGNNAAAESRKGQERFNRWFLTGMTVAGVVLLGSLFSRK
Method: FastStep experiments were performed with a SensiQ Pioneer apparatus. Bcl-2 immobilization on COOH5 sensorchips was carried out essentially as previously reported, [40]. All the experiments were carried out at 25 °C in degassed HEPES 20 mM, pH 7.4, NaCl 150 mM, 0.005% surfactant P20 + 2% DMSO (HBSP2%D). […] Each sensorgram is the average of at least three experiments. The decrease in Response Units (RU) after 165 s indicates analyte dissociation from the immobilized Bcl-2 upon HSBP2%D buffer injection. Control SPR experiments were carried out measuring sensorgrams on Bcl-xL and Mcl-1 (ligands) immobilized on COOH5 sensorchips as previously reported at 25 °C in degassed HBSP2%D buffer. […] Each sensorgram is the average of at least three experiments. The decrease in RU after 180 s indicates analyte dissociation from the immobilized ligands upon HSBP2%D buffer injection. Kinetic evaluation of the sensorgrams was carried out using the Qdat 4.0 program; best fittings were obtained with 2 sites and indicated in red (reported KD values refer to dissociation constants of the highest affinity site).
Each sensorgram is the average of at least three experiments.

[2] = C57/Bl6, mouse, plasma, ip, 100 mg/kg

SMILES | Tmax [1, 2] [h] | Kd (Bcl-xL) [µM] | Cmax ([1]; C57/Bl6, mouse, ip, 50 mg/kg, plasma) [µM] | AUC ([1]; C57/Bl6, mouse, ip, 50 mg/kg, plasma, read-out: mean AUCtot) [µM·h] | half-life ([1]; C57/Bl6, mouse, ip, 50 mg/kg, plasma, read-out: mean t½ (converted)) [h] | Tmax ([1]; C57/Bl6, mouse, plasma, ip, 50 mg/kg) [h] | mean total clearance ([1]; 50 mg/kg) [mL/min/kg]
CCCCOc1ccc(C2/C(=C(\O)c3ccc4c(c3)CC(C)O4)C(=O)C(=O)N2c2nnc(SCc3ccc(Cl)cc3)s2)cc1OCC (stereo not drawn) [IS20] | 16 | 0.42 ± 0.09 | – | – | – | – | –
CCCCCOc1ccc(C2/C(=C(\O)c3ccc4c(c3)CC(C)O4)C(=O)C(=O)N2c2nnc(SCc3ccc(Cl)cc3)s2)cc1OCC (stereo not drawn) [IS21] | 4 | 0.51 ± 0.17 | 4.1 | 40.9 | 11 | 2 | 26.3
